{
  "source": "paper PMC11858051",
  "about": "“PK/PD Analysis of High-Dose Daptomycin Use in the Treatment of Bone and Joint Infections: Data from a Real-World Setting” (Microorganisms, 2025)",
  "key": {"[1]": {"assay": "PK/PD target attainment at first TDM (eAUC0–24h and trough thresholds)", "quoted_text": "All patients performed daptomycin TDM according to the clinical practice, and its daily area under the concentration–time curve (eAUC0–24h; including eAUC24–48h in case of other day administration, meaning when the drug dose was given every 48 h instead of every 24 h as indicated in the SmPC as the standard dose) was estimated according to the following Equation (1) reported in the literature [18, 19], based on daptomycin trough and peak plasma concentrations: (1) AUC0–24 h = 0.5 × t^′×Cmax +∫t^′infinityCmax ×e^−kel×(t)dt− ∫24infinityCmin ×e^−kel×(t)dt\nFor the analysis of the safety profile of daptomycin, we considered the main PK parameters expressing the overall exposure to the antibiotic and its property to be cleared, such as eAUC0–24h and the trough plasma concentrations, respectively. For the efficacy daptomycin PK/PD targets, we considered the main PK parameter indicating the daily exposure to daptomycin which is represented by the eAUC0–24h and we combined this with the pertinent PD parameter of interest of bacterial disease which is the Minimum Inhibitory Concentration (MIC) of the isolated pathogen."}, "[2]": {"settings": "human, in vivo", "protocol": "This is a retrospective, monocentric study, including adult patients with a suspected or documented diagnosis of Gram-positive BJI who received daptomycin and whose plasma concentrations were measured once the steady state was reached. The study was approved by the Institutional Review Board of University of Udine (Prot IRB: 266/2023). We included all patients who were hospitalized at our University Hospital from July 2022 to December 2023. Data were retrieved from the hospital’s electronic registry, selecting all TDM performed by the Clinical Pharmacology Institute of ASU FC in the time frame of interest and then identifying the analyses required by the orthopedic wards (see Figure 1).\nThe peak and trough concentrations of daptomycin were determined through blood samples collected 30 min after the drug infusion and before dosing, respectively, on day 3 of therapy, once steady state was achieved. The drug clearance was estimated as apparent clearance, calculated as the […].\nDaptomycin concentrations were measured by a validated High-Performance Liquid Chromatography–Ultraviolet (HPLC-UV) method previously published, using Nexera-i 2040 LC, Shimadzu® (Shimadzu USA Manufacturing INC, Canby, OR, USA)."}, "[3]": {"assay": "C-reactive protein as surrogate efficacy marker during TDM", "type": "in vivo, human", "protocol": "Therefore, we attempted to correlate the targeted AUC0–24h with CRP levels measured after treatment. The CRP was obtained at the time of diagnosis and at the end of treatment or between stages in two-stage exchange arthroplasty."}, "[4]": {"settings": "single patient with CPK 1000 U/L"}},
  "data": [
    {"smiles": "CCCCCCCCCC(=O)N[C@@H](Cc1c[nH]c2ccccc12)C(=O)N[C@H](CC(N)=O)C(=O)N[C@@H](CC(=O)O)C(=O)N[C@@H]1C(=O)NCC(=O)N[C@@H](CCCN)C(=O)N[C@@H](CC(=O)O)C(=O)N[C@H](C)C(=O)N[C@@H](CC(=O)O)C(=O)NCC(=O)N[C@H](CO)C(=O)N[C@@H]([C@H](C)CC(=O)O)C(=O)N[C@@H](CC(=O)c2ccccc2N)C(=O)O[C@@H]1C", "note": "[daptomycin, Daptomycin]", "values": [
      {"measurement": "patients not receiving adequate doses for the PK/PD efficacy and safety targets", "setting": "[1]; dosing suggested in the SmPC", "result": 68.8, "unit": "%"},
      {"measurement": "patients underexposed (eAUC0–24h < 666 mg·h/L)", "setting": "[1]; first TDM, 6 of 77 patients, doses according to SmPC", "result": 7.8, "unit": "%"},
      {"measurement": "patients with high eAUC0–24h to monitor (939–1174 mg·h/L) and trough <24.3 mg/L", "setting": "[1]; first TDM, 16 of 77 patients", "result": 20.8, "unit": "%"},
      {"measurement": "patients with eAUC0–24h > 1174 mg·h/L", "setting": "[1]; first TDM, 26 of 77 patients", "result": 33.8, "unit": "%"},
      {"measurement": "patients on target (eAUC0–24h 666–939 mg·h/L and trough < 24.3 mg/L)", "setting": "[1]; first TDM, 27 of 77 patients", "result": 35.1, "unit": "%"},
      {"measurement": "estimated AUC0–24h, maximum value", "setting": "[2]", "result": 2263, "unit": "µg·h/mL"},
      {"measurement": "estimated AUC0–24h, minimum value", "setting": "[2]", "result": 395.7, "unit": "µg·h/mL"},
      {"measurement": "exposure in females compared with males (eAUC0–24h, trough, peak, clearance, also dose-adjusted)", "setting": "[2]", "result": "Females are overexposed to daptomycin compared with males"},
      {"measurement": "median dose-adjusted eAUC0–24h (eAUC0–24h/D), BMI > 25 kg/m^2", "setting": "[2]", "result": 112.6},
      {"measurement": "median dose-adjusted eAUC0–24h (eAUC0–24h/D), BMI ≤ 25 kg/m^2", "setting": "[2]", "result": 89.58},
      {"measurement": "median eAUC between 24 and 48 h after dosing (eAUC24–48h), other day administration", "setting": "[2]", "result": 339.8, "unit": "µg·h/mL"},
      {"measurement": "median eAUC within 24 h from dosing, other day administration", "setting": "[2]", "result": 1060, "unit": "µg·h/mL"},
      {"measurement": "median estimated AUC0–24h", "setting": "[2]", "result": 996.3, "unit": "µg·h/mL"},
      {"measurement": "median estimated drug clearance", "setting": "[2]", "result": 12.2, "unit": "mL/min"},
      {"measurement": "cases with increase in absolute eosinophil count at follow-up", "setting": "132 eosinophil count measurements at basal time and during TDM", "result": 108, "unit": "cases"},
      {"measurement": "other adverse events", "setting": "during therapy", "result": "No other adverse events were reported"},
      {"measurement": "eAUC0–24h of the patient with high CPK", "setting": "[4]", "result": 1051, "unit": "µg·h/mL"},
      {"measurement": "plasma peak concentration of the patient with high CPK", "setting": "[4]", "result": 84.4, "unit": "mg/L"},
      {"measurement": "plasma trough concentration of the patient with high CPK", "setting": "[4]", "result": 18.7, "unit": "mg/L"},
      {"measurement": "plasma CPK concentration reached in the one patient with high CPK", "setting": "single patient, baseline 325 U/L", "result": 1000, "unit": "U/L"},
      {"measurement": "median CRP during TDM", "setting": "[3]; 155 measurements, median", "result": 28.99, "unit": "mg/L"},
      {"measurement": "median CRP when eAUC0–24h >939 mg·h/L", "setting": "[3]; aggressive eAUC0–24h group, Mann–Whitney p = 0.029 vs <939", "result": 17.47, "unit": "mg/L"},
      {"measurement": "median CRP when eAUC0–24h < 939 mg·h/L", "setting": "[3]; eAUC0–24h < 939 mg·h/L group", "result": 40.60, "unit": "mg/L"}
    ]}
  ]
}
